The molecules below were run against HIV-1 PR (Human immunodeficiency virus type 1 group M subtype B, UniProt P04585) (assay: HIV-protease inhibitory activity assay (FRET peptide substrate)). Settings: Test Example 1.
Assay type: biochemical
Summary of the method: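 HIV-1 PR (0.83 ng) preincubated with compounds 20 min at room temperature in 0.1 mol/L NaAc, 0.5 mol/L NaCl, 1 mmol/L EDTA, 1 mmol/L DTT, 0.05% Tween 20, pH 4.8. Cleavage of HiLyte Fluor 488/QXL 520 FRET peptide (2 μmol/L) read after 60 minutes at 485/535 nm; IC50 from four-parameter logistic fit.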

Row | Structure (SMILES) | IC50 [nM]
1 | COc1ccc(S(=O)(=O)N(CC(C)C)CC(O)C(Cc2ccc(N(C)Cc3ncccc3C(=O)Nc3sc4c(c3C(=O)O)CC(C)(C)CC4)cc2)NC(=O)OC2COC3(C)OCCC23)cc1 (stereo not drawn) [Compound I-694] | 2.27
2 | COc1ccc(S(=O)(=O)N(CC(C)C)CC(O)C(Cc2ccc(N(C)Cc3ccc(Cl)cc3C(=O)Nc3sc4c(c3C(=O)O)CC(C)(C)CC4)cc2)NC(=O)OC2COC3(C)OCCC23)cc1 (stereo not drawn) [Compound I-659] | 9.51
3 | CC(C)CN(CC(O)C(Cc1ccc(OCc2ccccc2-c2sc3c(c2C(=O)O)CC(C)(C)CC3)cc1)NC(=O)OC1COC2(C)OCCC12)S(=O)(=O)c1ccc(N)cc1 (stereo not drawn) [Compound I-52] | 2.34
4 | COc1ccc(S(=O)(=O)N(CC(C)C)CC(O)C(Cc2ccc(N(CCN3CCOCC3)Cc3ccccc3-c3sc4c(c3C(=O)O)CC(C)(C)CC4)cc2)NC(=O)OC2COC3(C)OCCC23)cc1 (stereo not drawn) [Compound I-429] | 2.21
5 | COc1ccc(S(=O)(=O)N(CC(C)C)CC(O)C(Cc2ccc(N(C)CC3CCCCC3C(=O)Nc3sc4c(c3C(=O)O)CC(C)(C)CC4)cc2)NC(=O)OC2COC3(C)OCCC23)cc1 (stereo not drawn) [Compound I-616] | 4.2
6 | COc1ccc(S(=O)(=O)N(CC(C)C)CC(O)C(Cc2ccc(NCc3cc(C(F)(F)F)ccc3-n3nc(C(=O)O)c4c3CCC(C)(C)C4)cc2)NC(=O)OC2COC3(C)OCCC23)cc1 (stereo not drawn) [Compound I-446] | 2.12
7 | COc1ccc(S(=O)(=O)N(CC(C)C)CC(O)C(Cc2ccc(NCC3CCCCN3C(=O)c3sc4c(c3C(=O)O)CC(C)(C)CC4)cc2)NC(=O)OC2COC3(C)OCCC23)cc1 (stereo not drawn) [Compound I-604] | 2.19
8 | CC(C)CN(CC(O)C(Cc1ccc(Oc2ccc(-c3ccc(F)cc3F)cc2C(=O)O)cc1)NC(=O)OC1COC2(C)OCCC12)S(=O)(=O)c1ccc2ncsc2c1 (stereo not drawn) [Compound I-59] | 1.19
9 | COc1ccc(S(=O)(=O)N(CC(C)C)CC(O)C(Cc2ccc(OCC3CCCN(c4ccc(C#N)cc4-c4sc5c(c4C(=O)O)CC(C)(C)CC5)C3)cc2)NC(=O)OC2COC3(C)OCCC23)cc1 (stereo not drawn) [Compound I-328] | 12.8
10 | COc1ccc(S(=O)(=O)N(CC(C)C)CC(O)C(Cc2ccc(N(C)Cc3ccccc3-c3c(C(=O)O)c4ccccc4n3C)cc2)NC(=O)OC2COC3(C)OCCC23)cc1 (stereo not drawn) [Compound I-412] | 1.51
11 | COc1ccc(S(=O)(=O)N(CC(C)C)CC(O)C(Cc2ccc(N(CCC(C)C)Cc3ccccc3-c3sc4c(c3C(=O)O)CC(C)(C)CC4)cc2)NC(=O)OC2COC3(C)OCCC23)cc1 (stereo not drawn) [Compound I-461] | 7.09
12 | COc1ccc(S(=O)(=O)N(CC(C)C)CC(O)C(Cc2ccc(NCc3cc(C)cc(-c4sc5c(c4C(=O)O)CC(C)(C)CC5)c3)cc2)NC(=O)OC2COC3(C)OCCC23)cc1 (stereo not drawn) [Compound I-549] | 1.55
13 | COc1ccc(S(=O)(=O)N(CC(C)C)CC(O)C(Cc2ccc(N(C)Cc3ccc(OC)c(-c4sc5c(c4C(=O)O)CC(C)(C)CC5)c3)cc2)NC(=O)OC2COC3(C)OCCC23)cc1 (stereo not drawn) [Compound I-464] | 2.52
14 | COc1ccc(S(=O)(=O)N(CC(C)C)CC(O)C(Cc2ccc(NCc3ccccc3NC(=O)Nc3sc4c(c3C(=O)O)CC(C)(C)CC4)cc2)NC(=O)OC2COC3OCCC23)cc1 (stereo not drawn) [Compound I-884] | 2.03
15 | COc1ccc(S(=O)(=O)N(CC(C)C)CC(O)C(Cc2ccc(NCc3cc(C)c(-c4sc5c(c4C(=O)O)CC(C)(C)CC5)c(C)c3)cc2)NC(=O)OC2COC3(C)OCCC23)cc1 (stereo not drawn) [Compound I-533] | 10.6
16 | COc1ccc(S(=O)(=O)N(CC(C)C)CC(O)C(Cc2ccc(N(C)Cc3cc(N4CCC4)ccc3-c3sc4c(c3C(=O)O)CC(C)(C)CC4)cc2)NC(=O)OC2COC3(C)OCCC23)cc1 (stereo not drawn) [Compound I-708] | 1.65
17 | COc1ccc(S(=O)(=O)N(CC(C)C)CC(O)C(Cc2ccc(NCCOc3ccccc3-c3sc4c(c3C(=O)O)CC(C)(C)CC4)cc2)NC(=O)OC2COC3(C)OCCC23)cc1 (stereo not drawn) [Compound I-619] | 2.48
18 | COc1ccc(S(=O)(=O)N(CC2CCCC2)CC(O)C(Cc2ccc(OCc3nn(C)cc3-c3sc4c(c3C(=O)O)CC(C)(C)CC4)cc2)NC(=O)OC2COC3(C)OCCC23)cc1 (stereo not drawn) [Compound I-199] | 2.35
19 | COc1ccc(S(=O)(=O)N(CC(C)C)CC(O)C(Cc2ccc(OC3CCN(C(=O)Nc4ccc(Cl)cc4-c4sc5c(c4C(=O)O)CC(C)(C)CC5)C3)cc2)NC(=O)OC2COC3(C)OCCC23)cc1 (stereo not drawn) [Compound I-244] | 2.01
20 | COc1ccc(S(=O)(=O)N(CC(C)C)CC(O)C(Cc2ccc(NCc3ccccc3-c3c(C(=O)O)c4ccccc4n3C)cc2)NC(=O)OC2COC3(C)OCCC23)cc1 (stereo not drawn) [Compound I-411] | 1.3
21 | COc1ccc(S(=O)(=O)N(CC(C)C)CC(O)C(Cc2ccc(NC3c4ccccc4C(=O)N3c3sc4c(c3C(=O)O)CC(C)(C)CC4)cc2)NC(=O)OC2COC3(C)OCCC23)cc1 (stereo not drawn) [Compound I-536] | 2.1
22 | COc1ccc(S(=O)(=O)N(CC(C)C)CC(O)C(Cc2ccc(NCc3cc(F)cc(-c4sc5c(c4C(=O)O)CC(C)(C)CC5)c3)cc2)NC(=O)OC2COC3(C)OCCC23)cc1 (stereo not drawn) [Compound I-296] | 1.91
23 | COc1ccc(S(=O)(=O)N(CC(C)C)CC(O)C(Cc2ccc(NCc3cc(Cl)ccc3C(=O)Nc3sc4c(c3C(=O)O)CC(C)(C)CC4)cc2)NC(=O)OC2COC3(C)OCCC23)cc1 (stereo not drawn) [Compound I-656] | 6.57

Row | Structure (SMILES) | IC50 [nM]
24 | COc1ccc(S(=O)(=O)N(CC(C)C)CC(O)C(Cc2ccc(OCc3ccccc3-c3c(C(=O)O)c4c(n3C)CCCC4)cc2)NC(=O)OC2COC3(C)OCCC23)cc1 (stereo not drawn) [Compound I-50] | 1.13
25 | CC(C)CN(CC(O)C(Cc1ccc(OCc2sc(Oc3ccccc3)nc2C(=O)O)cc1)NC(=O)OC1COC2OCCC12)S(=O)(=O)c1ccc2ncsc2c1 (stereo not drawn) [Compound I-818] | 0.64
26 | COc1ccc(S(=O)(=O)N(CC(C)C)CC(O)C(Cc2ccc(N(C)CC3=C(c4sc5c(c4C(=O)O)CC(C)(C)CC5)CCC(F)(F)C3)cc2)NC(=O)OC2COC3(C)OCCC23)cc1 (stereo not drawn) [Compound I-706] | 6.62
27 | CC(C)CN(CC(O)C(Cc1ccc(NCc2ccccc2C(=O)Nc2sc3c(c2C(=O)O)CC(C)(C)CC3)cc1)NC(=O)OC1COC2OCCC12)S(=O)(=O)c1ccc2c(c1)OCO2 (stereo not drawn) [Compound I-854] | 3.16
28 | CC(C)CN(CC(O)C(Cc1ccc(OCc2cc(-c3ccc(F)cc3F)ccc2C(N)=O)cc1)NC(=O)OC1COC2(C)OCCC12)S(=O)(=O)c1ccc2ncsc2c1 (stereo not drawn) [Compound I-62] | 0.82
29 | COc1ccc(S(=O)(=O)N(CC(C)C)CC(O)C(Cc2ccc(OCc3ccccc3NC(=O)Nc3sc4c(c3C(=O)O)CC(C)(C)CC4)cc2)NC(=O)OC2COC3(C)OCCC23)cc1 (stereo not drawn) [Compound I-229] | 3.7
30 | COc1ccc(S(=O)(=O)N(CC(C)C)CC(O)C(Cc2ccc(NCc3cc(N4CC(C)(C)C4=O)ccc3-c3sc4c(c3C(=O)O)CC(C)(C)CC4)cc2)NC(=O)OC2COC3(C)OCCC23)cc1 (stereo not drawn) [Compound I-728] | 2.96
31 | COc1ccc(S(=O)(=O)N(CC(C)C)CC(O)C(Cc2ccc(N(C)Cc3cc(N4CCCCC4=O)ccc3-c3sc4c(c3C(=O)O)CC(C)(C)CC4)cc2)NC(=O)OC2COC3(C)OCCC23)cc1 (stereo not drawn) [Compound I-731] | 1.96
32 | COc1ccc(S(=O)(=O)N(CC(C)C)CC(O)C(Cc2ccc(NCc3ccc4scc(C(=O)O)c4c3)cc2)NC(=O)OC2COC3(C)OCCC23)cc1 (stereo not drawn) [Compound I-314] | 1.93
33 | COc1ccc(S(=O)(=O)N(CC(C)C)CC(O)C(Cc2ccc(OCc3ccccc3-c3ccc4c(C(=O)O)csc4c3)cc2)NC(=O)OC2COC3(C)OCCC23)cc1 (stereo not drawn) [Compound I-179] | 1.1
34 | COc1ccc(S(=O)(=O)N(CC(C)C)CC(O)C(Cc2ccc(NC(=O)Nc3ccccc3-c3sc4c(c3C(=O)O)CC(C)(C)CC4)cc2)NC(=O)OC2COC3(C)OCCC23)cc1 (stereo not drawn) [Compound I-270] | 3.38
35 | COc1ccc(S(=O)(=O)N(CC(C)C)CC(O)C(Cc2ccc(N3CC4CC(Oc5ccccc5-c5sc6c(c5C(=O)O)CC(C)(C)CC6)CC4C3)cc2)NC(=O)OC2COC3(C)OCCC23)cc1 (stereo not drawn) [Compound I-508] | 8.48
36 | COc1ccc(S(=O)(=O)N(CC(C)C)CC(O)C(Cc2ccc(NCC3=C(c4sc5c(c4C(=O)O)CC(C)(C)CC5)CN(C(=O)O)C3)cc2)NC(=O)OC2COC3(C)OCCC23)cc1 (stereo not drawn) [Compound I-402] | 1.89
37 | COc1ccc(S(=O)(=O)N(CC(C)C)CC(O)C(Cc2ccc(NCc3ccccc3-c3c(C(=O)O)[nH]c4ccccc34)cc2)NC(=O)OC2COC3(C)OCCC23)cc1 (stereo not drawn) [Compound I-660] | 2.12
38 | COc1ccc(S(=O)(=O)N(CC(C)C)CC(O)C(Cc2ccc(OCc3ncsc3-c3sc4c(c3C(=O)O)CC(C)(C)CC4)cc2)NC(=O)OC2COC3OCCC23)cc1 (stereo not drawn) [Compound I-828] | 0.96
39 | COc1ccc(S(=O)(=O)N(CC(C)C)CC(O)C(Cc2ccc(OCc3cccnc3-c3sc4c(c3C(=O)O)CC(C)(C)CC4)cc2)NC(=O)OC2COC3(C)OCCC23)cc1 (stereo not drawn) [Compound I-90] | 1.32
40 | COc1ccc(S(=O)(=O)N(CC(C)C)CC(O)C(Cc2ccc(NCC3CC(C)(C)CC3c3sc4c(c3C(=O)O)CC(C)(C)CC4)cc2)NC(=O)OC2COC3OCCC23)cc1 (stereo not drawn) [Compound I-883] | 2.15
41 | COc1ccc(S(=O)(=O)N(CC(C)C)CC(O)C(Cc2ccc(NCc3cccc(-c4sc5c(c4C(=O)O)CC(C)(C)CC5)n3)cc2)NC(=O)OC2COC3(C)OCCC23)cc1 (stereo not drawn) [Compound I-283] | 2.28
42 | COc1ccc(S(=O)(=O)N(CC(C)C)CC(O)C(Cc2ccc(NCc3nc4ccccc4cc3C(=O)Nc3sc4c(c3C(=O)O)CC(C)(C)CC4)cc2)NC(=O)OC2COC3(C)OCCC23)cc1 (stereo not drawn) [Compound I-774] | 6.26
43 | COc1ccc(S(=O)(=O)N(CC(C)C)CC(O)C(Cc2ccc(-c3ccc(Cn4nc5c(c4C(=O)O)CC(C)(C)CC5)cc3)cc2)NC(=O)OC2COC3(C)OCCC23)cc1 (stereo not drawn) [Compound I-217] | 1.95
44 | COc1ccc(S(=O)(=O)N(CC(C)C)CC(O)C(Cc2ccc(OCC3CCCCC3Nc3ccc(C#N)cc3-c3sc4c(c3C(=O)O)CC(C)(C)CC4)cc2)NC(=O)OC2COC3(C)OCCC23)cc1 (stereo not drawn) [Compound I-259] | 10.9
45 | COc1ccc(S(=O)(=O)N(CC(C)C)CC(O)C(Cc2ccc(N(C)Cc3ccccc3-c3ccc(Nc4sc5c(c4C(=O)O)CC(C)(C)CC5)nc3)cc2)NC(=O)OC2COC3(C)OCCC23)cc1 (stereo not drawn) [Compound I-776] | 6.4
